# Test results: patent US20260174855A1 (priority 2022, published 2026)
# Columns and labels:
# [1] = for NorBUP in fetal brains or maternal plasma: 1 or 3 mg/kg/day s.c. minipump, GD 9-20
# rats = assay: warm water tail withdrawal assay (antinociception); details: for % MPE (at 0.1 mg/kg): 0.1 mg/kg i.v., mean (95% confidence interval); for ED50: Rattus norvegicus, iv
# hDOR = hDOR (Homo sapiens, UniProt P41143); assay: [35S]GTPγS binding, G-protein activation; format: biochemical; details: for type of activity at hDOR: 1 μM, no activation; for Emax at 1 µM: hDOR, determined from single-concentration (1 μM) experiments, read-out: Emax (% of vehicle)
# Sequence of hDOR (P41143 whole entry): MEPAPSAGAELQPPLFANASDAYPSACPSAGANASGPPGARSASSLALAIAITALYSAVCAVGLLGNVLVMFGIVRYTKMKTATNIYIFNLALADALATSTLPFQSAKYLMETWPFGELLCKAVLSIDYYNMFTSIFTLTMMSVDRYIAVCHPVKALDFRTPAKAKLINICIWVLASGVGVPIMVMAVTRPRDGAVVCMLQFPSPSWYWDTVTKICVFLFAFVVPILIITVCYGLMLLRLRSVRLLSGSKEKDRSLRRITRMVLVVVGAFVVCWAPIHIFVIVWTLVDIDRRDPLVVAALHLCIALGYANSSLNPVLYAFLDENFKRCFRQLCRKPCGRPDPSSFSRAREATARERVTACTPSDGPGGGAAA
# hMOR = hMOR (Homo sapiens, UniProt P35372); assay: biochemical; details: read-out: Emax (% of vehicle)
# Sequence of hMOR (P35372 whole entry): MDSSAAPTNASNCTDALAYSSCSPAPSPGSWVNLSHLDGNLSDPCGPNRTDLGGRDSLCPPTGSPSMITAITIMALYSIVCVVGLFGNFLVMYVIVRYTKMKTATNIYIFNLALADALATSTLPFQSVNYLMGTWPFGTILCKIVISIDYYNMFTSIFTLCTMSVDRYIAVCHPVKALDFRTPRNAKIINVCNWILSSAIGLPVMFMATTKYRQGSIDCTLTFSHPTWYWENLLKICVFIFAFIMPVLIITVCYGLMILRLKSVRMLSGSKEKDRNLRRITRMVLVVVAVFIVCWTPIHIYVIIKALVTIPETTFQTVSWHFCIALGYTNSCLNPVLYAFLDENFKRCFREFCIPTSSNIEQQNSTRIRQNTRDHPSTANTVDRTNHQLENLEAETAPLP
# [2] = 4 mg/kg i.v.; data not shown
SMILES,NorBUP in fetal brains or maternal plasma [1],"area under the curve vs. BUP ([1]; maternal plasma, data not shown)",% MPE (at 0.1 mg/kg) (rats; 10 minutes),% MPE (at 0.1 mg/kg) (rats; 60 minutes),ED50 (rats; 10 min) [mg/kg],ED50 (rats; 1 h) [mg/kg],type of activity at hDOR (hDOR),Emax at 1 µM (hDOR) [%],Emax (hMOR) [%],"area under the NorBUP glucuronide curve, BUP versus BUP-D2 group [2]"
"[2H]C([2H])(C1CC1)N1CC[C@]23c4c5ccc(O)c4O[C@H]2[C@@]2(OC)CC[C@@]3(C[C@@H]2[C@](C)(O)C(C)(C)C)C1C5 [BUP-D2, (4aS,6R,7R,7aR,12bS)-3-(cyclopropylmethyl-d2)-6-((S)-2-hydroxy-3,3-dimethylbutan-2-yl)-7-methoxy-1,2,3,4,5,6,7,7a-octahydro-4a,7-ethano-4,12-methanobenzofuro[3,2-e]isoquinolin-9-ol]",detected no NorBUP,significantly greater,84.4 (43.5-125.2) % MPE,97.9 (89.1-106.8) % MPE,0.021,0.018,neutral antagonists of hDORs,107,,
C[C@@H](NC(=O)[C@@H](N)Cc1ccc(O)cc1)C(=O)NCC(=O)N(C)[C@@H](Cc1ccccc1)C(=O)NCCO [DAMGO],,,,,,,,,308,
"CO[C@@]12CC[C@@]3(C[C@@H]1[C@](C)(O)C(C)(C)C)C1Cc4ccc(O)c5c4[C@@]3(CCN1CC1CC1)[C@H]2O5 [BUP, buprenorphine]",detected no NorBUP,,90.1 (68.8-111.4) % MPE,96.8 (83.2-110.5) % MPE,0.025,0.021,neutral antagonists of hDORs,114,,significantly greater
